Data taken from US7741368B2, “Approach to antimicrobial host defense with molecular shields with EPA and DHA analogs” (The Brigham and Women's Hospital, Inc., priority 2001, dated 2010).

Test system: BPI
Conditions: confluent Caco2 intestinal epithelial monolayers, 1 μM, 24 hr, β actin internal standard (FIG. 5)

Question: For `CC[C@@H](O)/C=C/C=C\C[C@@H](O)/C=C/C=C/C=C\[C@@H](O)CCCC(=O)O` [5S,12R,18R-tri-HEPE], which “fold induction of BPI mRNA” value is on record?
Answer: BPI induction
